# Data published in the supplement of paper PMC10307832.
# Compound: CCN1CCN(c2ccc(Nc3cc(N(C)C(=O)Nc4c(Cl)c(OC)cc(OC)c4Cl)ncn3)cc2)CC1 [BGJ398] + Cc1nc(Nc2ncc(C(=O)Nc3c(C)cccc3Cl)s2)cc(N2CCN(CCO)CC2)n1 [Dasatinib] (partner 0.075 µM)
# Experiment: relative viability (nuclei count vs DMSO), 5 days (fraction); higher = more cells survive
# Conditions: first compound 1 µM
# Outline: (§1)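 Relative viability equals treated-well nuclei counts divided by vehicle-well nuclei counts. Counts came from 4× images of lung cancer cell lines grown in 1536-well plates for 5 days after pin-tool dosing on the day after seeding. Dosing used one drug alone or a fixed anchor-drug dose plus five library-drug doses (not always all listed) in √10 steps, and values are medians of duplicate plates.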
row,Cell Line,relative viability
1,RERF-LC-KJ,0.819
2,NCI-H650,0.401
3,PC-3 [JPC-3],1.01

# Compound: CCN1CCN(c2ccc(Nc3cc(N(C)C(=O)Nc4c(Cl)c(OC)cc(OC)c4Cl)ncn3)cc2)CC1 [BGJ398] + O=C(CCCCCCC(=O)Nc1ccccc1)NO [Vorinostat] (partner 1 µM)
# Experiment: as above
# Conditions: first compound 0.01 µM
# Outline: as §1
row,Cell Line,relative viability
1,CAL-12T,0.666
2,NCI-H1651,0.473
3,EPLC-272H,0.531
4,NCI-H2228,0.583
5,NCI-H1355,0.576
6,NCI-H3122,0.99
7,NCI-H1437,0.954
8,NCI-H1755,0.714
9,NCI-H2023,0.673
10,HCC-15,0.809
11,PC-14,0.722
12,EKVX,0.701
13,LC-2-ad,0.708
14,NCI-H1975,0.677
15,RERF-LC-KJ,0.668
16,NCI-H650,0.414
17,PC-3 [JPC-3],1.04

# Same assay, conditions: first compound 0.03162 µM
row,Cell Line,relative viability
1,CAL-12T,1.08
2,NCI-H1651,0.544
3,EPLC-272H,0.395
4,NCI-H2228,0.761
5,NCI-H1355,0.626
6,NCI-H3122,0.991
7,NCI-H1437,0.887
8,NCI-H1755,0.746
9,NCI-H2023,0.683
10,HCC-15,0.795
11,PC-14,0.121
12,LC-2-ad,0.76
13,NCI-H1975,0.794
14,RERF-LC-KJ,0.643
15,NCI-H650,0.427

# Same assay, conditions: first compound 0.1 µM
row,Cell Line,relative viability
1,CAL-12T,0.703
2,NCI-H1651,0.554
3,EPLC-272H,0.261
4,NCI-H2228,0.706
5,NCI-H1355,0.695
6,NCI-H3122,1.01
7,NCI-H1437,0.794
8,NCI-H1755,0.827
9,NCI-H2023,0.715
10,HCC-15,0.779
11,PC-14,0.818
12,EKVX,0.921
13,LC-2-ad,0.742
14,NCI-H1975,0.758
15,RERF-LC-KJ,0.765
16,NCI-H650,0.543
17,PC-3 [JPC-3],0.52

# Same assay, conditions: first compound 0.3162 µM
row,Cell Line,relative viability
1,CAL-12T,0.895
2,NCI-H1651,0.579
3,EPLC-272H,0.5
4,NCI-H2228,0.531
5,NCI-H1355,0.607
6,NCI-H3122,0.996
7,NCI-H1437,0.784
8,NCI-H1755,0.733
9,NCI-H2023,0.664
10,HCC-15,0.824
11,EKVX,0.691
12,LC-2-ad,0.687
13,NCI-H1975,0.677
14,RERF-LC-KJ,0.727
15,NCI-H650,0.464

# Same assay, conditions: first compound 1 µM
row,Cell Line,relative viability
1,CAL-12T,0.941
2,NCI-H1651,0.405
3,EPLC-272H,0.578
4,NCI-H2228,0.542
5,NCI-H1355,0.49
6,NCI-H3122,1.2
7,NCI-H1437,0.821
8,NCI-H1755,0.72
9,NCI-H2023,0.54
10,HCC-15,0.759
11,PC-14,0.78
12,EKVX,0.728
13,LC-2-ad,0.703
14,NCI-H1975,0.672
15,RERF-LC-KJ,0.539
16,NCI-H650,0.411
17,PC-3 [JPC-3],0.705
